From ChEMBL document CHEMBL4033666, “Synthesis and mechanistic evaluation of novel N'-benzylidene-carbohydrazide-1H-pyrazolo[3,4-b]pyridine derivatives as non-anionic antiplatelet agents” (Eur J Med Chem, 2017)
Active and inactive are the calls of the source. Unless noted, no cut-off for these calls is given here.

Tests used:
[1] = system: Platelet; experiment: Antiplatelet activity in human platelet rich plasma assessed as inhibition of epinephrine-induced platelet aggregation preincubated for 2 mins followed by epinephrine addition by turbidimetric method; format: cell-based
[2] = system: Platelet; experiment: Antiplatelet activity in human platelet rich plasma assessed as inhibition of […]-induced platelet aggregation at 100 uM preincubated for 2 mins followed by […] addition by turbidimetric method; format: functional, cell-based
[3] = target: T1, Thromboxane-A synthase (Homo sapiens) (UniProt P24557); experiment: Inhibition of TXS in human platelet rich plasma assessed as decrease in TXB2 production at 100 uM using arachidonic acid after 5 mins by ELISA
T1 sequence (whole entry): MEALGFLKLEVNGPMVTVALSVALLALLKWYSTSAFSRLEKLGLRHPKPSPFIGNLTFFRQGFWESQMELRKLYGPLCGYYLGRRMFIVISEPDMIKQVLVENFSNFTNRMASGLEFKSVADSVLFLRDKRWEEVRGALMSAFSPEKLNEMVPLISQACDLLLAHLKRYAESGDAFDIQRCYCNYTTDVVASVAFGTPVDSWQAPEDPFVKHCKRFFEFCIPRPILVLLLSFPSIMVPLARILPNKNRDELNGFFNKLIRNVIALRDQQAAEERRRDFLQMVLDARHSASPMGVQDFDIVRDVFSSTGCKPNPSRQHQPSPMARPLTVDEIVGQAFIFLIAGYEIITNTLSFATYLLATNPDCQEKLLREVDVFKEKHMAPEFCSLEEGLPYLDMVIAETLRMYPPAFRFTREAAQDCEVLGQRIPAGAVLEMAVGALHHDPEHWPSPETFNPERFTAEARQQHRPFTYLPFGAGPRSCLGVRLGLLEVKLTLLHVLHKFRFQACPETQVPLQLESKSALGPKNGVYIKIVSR

[4] = system: Platelet; experiment: Antiplatelet activity in human platelet rich plasma assessed as inhibition of ADP-induced platelet aggregation at 100 uM preincubated for 2 mins followed by ADP addition by turbidimetric method relative to control; format: cell-based
[5] = target: Cytochrome P450 3A4 (Homo sapiens, UniProt P08684); experiment: Inhibition of recombinant human CYP3A4 expressed in baculosomes using BOMR as substrate preincubated for 10 mins followed by substrate/NADP+ addition measured for 1 hr; format: ADME; details: for inhibition (INH): human, recombinant enzyme, 1 h
[6] = system: Plasma; experiment: Change in prothrombin time in human plasma at 100 uM incubated for 15 mins at room temperature and 2 mins at 37 degC in presence of calcium thromboplastin; format: ADME, cell-free
[7] = system: Platelet; experiment: Antiplatelet activity in human platelet rich plasma assessed as inhibition of epinephrine-induced platelet aggregation at 100 uM preincubated for 2 mins followed by epinephrine addition by turbidimetric method relative to control; format: cell-based
[8] = system: Platelet; experiment: Potency index, ratio of ozagrel IC50 to test compound IC50 for inhibition of arachidonic acid-induced platelet aggregation in human platelet rich plasma; format: functional
[9] = system: Platelet; experiment: Antiplatelet activity in human platelet rich plasma assessed as inhibition of arachidonic acid-induced platelet aggregation preincubated for 2 mins followed by arachidonic acid addition by turbidimetric method relative to control; format: functional, cell-based
[10] = system: Platelet; experiment: Antiplatelet activity in human platelet rich plasma assessed as inhibition of arachidonic acid-induced platelet aggregation at 100 uM preincubated for 2 mins followed by arachidonic acid addition by turbidimetric method relative to control; format: functional
[11] = system: Plasma; experiment: Change in activated partial thromboplastin time in human plasma at 100 uM incubated for 15 mins at room temperature and 2 mins at 37 degC in presence of CaCl2; format: ADME, cell-free
[12] = target: Prostaglandin G/H synthase 1 (Homo sapiens, UniProt P23219); experiment: Inhibition of COX1 in human platelet rich plasma assessed as decrease in PGE2 production at 100 uM using arachidonic acid as substrate after 5 mins by ELISA
[13] = target: T2, Prostaglandin G/H synthase 1 (Ovis aries, UniProt P05979); experiment: Inhibition of ovine COX-1 assessed as reduction in PGH2 production up to 100 uM using arachidonic acid as substrate preincubated for 5 mins followed by substrate and hematin addition measured after 2 mins by ELISA relative to control; details: sheep
T2 sequence (P05979 whole entry): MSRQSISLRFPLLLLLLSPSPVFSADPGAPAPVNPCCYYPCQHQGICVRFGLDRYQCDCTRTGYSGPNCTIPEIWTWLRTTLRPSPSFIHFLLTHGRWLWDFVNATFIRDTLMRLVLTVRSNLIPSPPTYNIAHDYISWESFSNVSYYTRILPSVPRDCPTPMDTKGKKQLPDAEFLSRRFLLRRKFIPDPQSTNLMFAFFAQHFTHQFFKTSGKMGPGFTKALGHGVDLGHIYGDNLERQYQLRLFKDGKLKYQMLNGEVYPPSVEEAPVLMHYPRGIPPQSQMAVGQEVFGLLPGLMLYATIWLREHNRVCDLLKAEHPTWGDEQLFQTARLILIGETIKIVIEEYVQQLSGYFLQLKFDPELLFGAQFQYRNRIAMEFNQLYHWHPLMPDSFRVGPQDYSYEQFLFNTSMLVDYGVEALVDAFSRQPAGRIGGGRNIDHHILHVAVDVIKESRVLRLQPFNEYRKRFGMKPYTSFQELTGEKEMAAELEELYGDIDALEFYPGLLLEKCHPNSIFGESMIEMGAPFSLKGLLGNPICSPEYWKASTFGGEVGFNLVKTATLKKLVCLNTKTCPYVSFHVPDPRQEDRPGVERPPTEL

[14] = Binding affinity to DOPC/DOPS large unilamellar vesicles assessed as blue shift at 100 uM by DAPI staining based fluorescence assay
[15] = system: Platelet; experiment: Antiplatelet activity in human platelet rich plasma assessed as inhibition of ADP-induced platelet aggregation preincubated for 2 mins followed by ADP addition by turbidimetric method; format: cell-based
[16] = target: T3, Prostaglandin G/H synthase 2 (Homo sapiens, UniProt P35354); experiment: Inhibition of recombinant human COX-2 assessed as reduction in PGH2 production up to 100 uM using arachidonic acid as substrate preincubated for 5 mins followed by substrate and hematin addition measured after 2 mins by ELISA relative to control
T3 sequence (P35354 whole entry): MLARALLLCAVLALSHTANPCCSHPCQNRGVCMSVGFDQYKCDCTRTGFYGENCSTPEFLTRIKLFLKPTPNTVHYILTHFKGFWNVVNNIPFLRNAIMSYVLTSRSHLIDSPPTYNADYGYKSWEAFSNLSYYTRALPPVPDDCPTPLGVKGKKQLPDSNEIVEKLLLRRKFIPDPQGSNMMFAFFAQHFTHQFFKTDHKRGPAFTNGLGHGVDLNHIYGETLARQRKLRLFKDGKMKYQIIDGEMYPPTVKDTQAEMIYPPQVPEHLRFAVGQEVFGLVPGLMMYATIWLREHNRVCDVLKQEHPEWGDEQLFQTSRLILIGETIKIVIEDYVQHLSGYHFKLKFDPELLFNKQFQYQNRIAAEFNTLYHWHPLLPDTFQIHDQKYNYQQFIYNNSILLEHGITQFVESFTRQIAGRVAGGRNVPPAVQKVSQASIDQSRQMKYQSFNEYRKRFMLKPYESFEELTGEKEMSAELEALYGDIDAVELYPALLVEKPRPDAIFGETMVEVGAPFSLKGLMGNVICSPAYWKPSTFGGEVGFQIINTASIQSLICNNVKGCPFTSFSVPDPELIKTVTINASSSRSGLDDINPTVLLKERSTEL

[17] = system: Platelet; experiment: Antiplatelet activity in human platelet rich plasma assessed as inhibition of collagen-induced platelet aggregation at 100 uM preincubated for 2 mins followed by collagen addition by turbidimetric method relative to control; format: cell-based
[18] = system: Platelet; experiment: Antiplatelet activity in human platelet rich plasma assessed as inhibition of collagen-induced platelet aggregation preincubated for 2 mins followed by collagen addition by turbidimetric method; format: cell-based
[19] = system: Platelet; experiment: Potency index, ratio of aspirin IC50 to test compound IC50 for inhibition of arachidonic acid-induced platelet aggregation in human platelet rich plasma; format: functional
[20] = system: Blood; experiment: Reduction of clot retraction in human whole blood after 2 hrs; format: ADME, tissue-based
[21] = system: Platelet; experiment: Drug uptake in human platelet assessed as co-localization with CD31 at 100 uM by confocal microscopy analysis; format: ADME, cell-based
[22] = system: Platelet; experiment: Drug uptake in human platelet assessed as co-localization with CD31 at 100 uM by epifluorescence assay; format: ADME, cell-based
[23] = target: T2, Prostaglandin G/H synthase 1; experiment: Inhibition of ovine COX-1 assessed as reduction in PGH2 production using arachidonic acid as substrate preincubated for 5 mins followed by substrate and hematin addition measured after 2 mins by ELISA relative to control; details: sheep
[24] = Hemolytic activity against human erythrocytes after 3 hrs relative to control; format: ADME, cell-based, Erythrocyte; details: read-out: Activity
[25] = Selectivity ratio of IC50 for recombinant human CYP3A4 to IC50 for arachidonic acid-induced platelet aggregation in human platelet rich plasma

Chain of Prostaglandin G/H synthase 1 (Homo sapiens, UniProt P23219) (P23219 whole entry): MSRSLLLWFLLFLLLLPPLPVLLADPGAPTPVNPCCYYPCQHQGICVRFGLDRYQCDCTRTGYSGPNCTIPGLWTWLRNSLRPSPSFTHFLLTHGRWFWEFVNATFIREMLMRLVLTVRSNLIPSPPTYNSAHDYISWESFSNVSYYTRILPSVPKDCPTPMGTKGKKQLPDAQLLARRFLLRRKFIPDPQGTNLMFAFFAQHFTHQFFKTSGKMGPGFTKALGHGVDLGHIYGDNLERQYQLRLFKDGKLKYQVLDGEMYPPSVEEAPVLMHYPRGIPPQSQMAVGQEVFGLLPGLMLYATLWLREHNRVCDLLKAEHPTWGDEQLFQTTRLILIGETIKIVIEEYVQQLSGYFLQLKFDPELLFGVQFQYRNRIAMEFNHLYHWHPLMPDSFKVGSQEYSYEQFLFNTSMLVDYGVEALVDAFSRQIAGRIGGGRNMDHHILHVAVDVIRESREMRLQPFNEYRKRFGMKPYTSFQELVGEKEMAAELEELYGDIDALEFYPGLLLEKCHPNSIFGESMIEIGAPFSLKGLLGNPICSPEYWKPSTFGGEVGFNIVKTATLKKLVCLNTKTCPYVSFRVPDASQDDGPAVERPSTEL
Chain of Cytochrome P450 3A4 (P08684 whole entry): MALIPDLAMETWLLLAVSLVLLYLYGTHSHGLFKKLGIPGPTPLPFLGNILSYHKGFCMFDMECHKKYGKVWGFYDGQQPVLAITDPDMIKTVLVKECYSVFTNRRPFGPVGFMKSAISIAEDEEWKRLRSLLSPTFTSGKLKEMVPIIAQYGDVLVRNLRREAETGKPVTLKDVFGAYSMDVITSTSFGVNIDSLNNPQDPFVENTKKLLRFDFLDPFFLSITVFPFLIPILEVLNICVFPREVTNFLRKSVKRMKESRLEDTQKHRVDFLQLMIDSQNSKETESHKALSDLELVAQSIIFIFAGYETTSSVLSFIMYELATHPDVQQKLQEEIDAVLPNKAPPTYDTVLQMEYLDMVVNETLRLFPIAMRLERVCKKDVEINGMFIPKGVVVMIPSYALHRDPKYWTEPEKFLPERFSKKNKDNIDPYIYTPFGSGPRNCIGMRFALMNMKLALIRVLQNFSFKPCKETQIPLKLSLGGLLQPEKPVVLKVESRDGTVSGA

Compound | IC50 [1] [µM] | inhibition [3] | IC50 [9] [µM] | inhibition (INH) [12] | inhibition (INH) [13] | Activity [14] | IC50 [15] [µM] | inhibition (INH) [16] | IC50 [18] [µM] | Drug uptake [21] | Drug uptake [22] | inhibition [2] | inhibition at 100 µM [4] [%] | Activity [6] | inhibition at 100 µM [7] [%] | Ratio IC50 [8] | inhibition at 100 µM [10] [%] | Activity [11] | inhibition at 100 µM [17] [%] | Activity [20] | further results
COc1ccc2c(c1)c(CC(=O)O)c(C)n2C(=O)c1ccc(Cl)cc1 [INDOMETHACIN] | – | – | – | – | – | – | – | – | – | – | – | – | – | – | – | – | – | – | – | – | inhibition (INH) [23]: < 20%
Cc1cc(C(=O)N/N=C/c2ccc([N+](=O)[O-])cc2)c2c(C)nn(-c3ccccc3)c2n1 | > 100 | Active | 78.9 | Not Active | Not Active | Active | > 100 | Not Active | > 100 | Active | Active | inactive | 0 | Non-Toxic | 4.15 | – | 95 | Non-Toxic | 4.1 | Non-Toxic | hemolysis at 3 h [24]: 7.3%; IC50 [5]: 156 µM
Cc1cc(C(=O)N/N=C/c2ccc(Br)cc2)c2c(C)nn(-c3ccccc3)c2n1 | > 100 | Active | 3.67 to 10.2 | Not Active | Not Active | Active | > 100 | Not Active | > 100 | Active | Active | inactive | 9.4 | Non-Toxic | 11.8 | <=10 | 94.8 | Non-Toxic | 17 | Non-Toxic | hemolysis at 3 h [24]: 5%; Ratio IC50 [25]: 20 to 30; IC50 [5]: 138 µM; Ratio IC50 [19]: <=10

Now from value to compound, other results behind:

IC50 [1] [µM] | inhibition [3] | IC50 [9] [µM] | inhibition (INH) [12] | inhibition (INH) [13] | Activity [14] | IC50 [15] [µM] | inhibition (INH) [16] | IC50 [18] [µM] | Drug uptake [21] | Drug uptake [22] | Compound | inhibition [2] | inhibition at 100 µM [4] [%] | Activity [6] | inhibition at 100 µM [7] [%] | Ratio IC50 [8] | inhibition at 100 µM [10] [%] | Activity [11] | inhibition at 100 µM [17] [%] | Activity [20] | further results
> 100 | Active | 3.67 to 10.2 | Not Active | Not Active | Active | > 100 | Not Active | > 100 | Active | Active | Cc1ccc(/C=N/NC(=O)c2cc(C)nc3c2c(C)nn3-c2ccccc2)cc1 | inactive | 6.2 | Non-Toxic | 0 | <=10 | 89.2 | Non-Toxic | 5.58 | Non-Toxic | inhibition (INH) [5]: Dose-dependent effect; Ratio IC50 [19]: <=10
> 100 | Active | 3.67 to 10.2 | Active | Not Active | Active | > 100 | Not Active | > 100 | Active | Active | Cc1cc(C(=O)N/N=C/c2ccc(Cl)cc2)c2c(C)nn(-c3ccccc3)c2n1 | inactive | 3.4 | Non-Toxic | 1.1 | <=10 | 83.8 | Non-Toxic | 35.3 | Non-Toxic | hemolysis at 3 h [24]: 10%; Ratio IC50 [25]: 20 to 30; IC50 [5]: 94.6 µM; Ratio IC50 [19]: <=10
> 100 | Active | 3.67 to 10.2 | Not Active | Not Active | Active | > 100 | Not Active | > 100 | Active | Active | Cc1cc(C(=O)N/N=C/c2ccc(F)cc2)c2c(C)nn(-c3ccccc3)c2n1 | inactive | 13.8 | Non-Toxic | 3.88 | <=10 | 95.4 | Non-Toxic | 9.19 | Non-Toxic | hemolysis at 3 h [24]: 5%; inhibition (INH) [5]: Dose-dependent effect; Ratio IC50 [19]: <=10
